pEC50: −log10 of the molar value. Values after ≈ are worked out from the molar mass of the structure shown. Values joined by “and” are separate entries in the source; they are usually repeats but may differ in a detail not shown here. Identical values can stand only once. Counter-ions that a name gives are not always drawn. Like-named read-outs stand apart in the source and are kept apart here.
Experiments:
[1] = system: GR activation in 293/PRLR/GRE-Luc cells (HEK293/9xUAS-Luc2P/pBind-GR/PRLR-HA high cells); test: GR co-activator luciferase reporter cell based assay in 293/PRLR/GRE-Luc cells; set-up: species or system human
Outline: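 EC50 was derived from a 10-point, four-parameter logistic fit of One-Glo luminescence. The reporter is driven by Gal4UAS through GR ligand-binding domain fused to Gal4 DBD in PRLR-expressing 293 cells, after ADC internalization or free steroid exposure. Activation below 10% of the free-payload maximum counts as minimal.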

[2] = system: GR activation in 293/GRE-Luc cells (293_PBind GR/UAS-Luc); test: Luciferase reporter assay in antigen negative 293/GRE-Luc cells; assay type: cell-based, human; conditions: Homo sapiens, 72 h, read-out: EC50 in 293/GRE-Luc (M)
[3] = Pharmacokinetics of 4b and 6-I in mice (blood concentration-time); assay type: in vivo, C57BL/6j mice; conditions: in vivo
[4] = system: LPS-induced cytokine release (TNF-α); test: Mouse model of LPS induced cytokine release (TNF-α in plasma); assay type: in vivo, C57BL/6j mice
CD11c+ splenic DCs = test: Ex vivo LPS-induced cytokine production in mouse splenic CD11c+ dendritic cells; assay type: cell-based, C57Bl/6 mice; set-up: TNF-a / IL-12p70 / IL-1b / IL-6 / KC-GRO: unit not given here
Description: (§1) Supernatants were collected into 96-well round bottom tissue culture plates 24 hours post-LPS challenge and stored at −20° C. until further analysis. Cytokine concentrations in the supernatants were measured using a Pro-inflammatory Panel 1 (mouse) multiplex immunoassay kit (MesoScale Discovery, Cat #K15048D) according to manufacturer's instructions or Pro-inflammatory Panel 1 (human) multiplex immunoassay kit (MesoScale Discovery, Cat #K15049D). In brief, 50 μL/well of calibrators and samples (diluted in Diluent 1:2) were added to the plates pre-coated with capture antibodies and incubated at room temperature while shaking at 700 rpm for 2 hours. The plates were then washed 3 times with 1×PBS containing 0.05% (w/v) Tween-20, followed by the addition of 25 μL of Detection Antibody Solution diluted in Diluent 45. After 2-hour incubation at room temperature while shaking, the plates were washed 3 times, and 150 μL of 2× Read Buffer was added to each well. Electrochemiluminescence was immediately read on a MSD Spector® instrument. Data analysis was performed using GraphPad Prism™ software. Statistical significance within the groups was determined by one-way Anova with Turkey's multiple comparison post-test and standard error of mean (SEM±) calculated.

[5] = system: human monocyte derived-DC; test: Ex vivo LPS-induced cytokine production in human monocyte derived DCs; assay type: cell-based; set-up: IL-6 / IL-8 / TNF-a / IL-12p70 / IL-1b: unit not given here
Description: The complete-RPMI with IL4 and GM-CSF was changed every three days. […]
as §1

[6] = Solubility in water and DMSO/water
[7] = male, C57BL/6, mouse, ip, 1 mg/kg

CCCC1O[C@@H]2C[C@H]3[C@@H]4C[C@H](F)C5=CC(=O)C=C[C@]5(C)[C@@]4(F)[C@@H](O)C[C@]3(C)[C@]2(C(=O)CN)O1 (stereo partly drawn) [Compound 4b, (1S,2S,4R,6R,8S,9S,11S,12R,13S,19S)-8-(2-Aminoacetyl)-12,19-difluoro-11-hydroxy-9,13-dimethyl-6-propyl-5,7-dioxapentacyclo[10.8.0.0^2,90.0^4,80.0^13,18]icosa-14,17-dien-16-one; trifluoroacetic Acid Salt]
EC50 of GRE-Luc activation ([1]; 293/PRLR/GRE-Luc cells, 72 hours): better IC50 value than Budesonide and Dexamethasone | EC50 ([1]; Homo sapiens, HEK293, read-out: EC50 in 293/PRLR/GRE-Luc (M), 72 hrs of incubation): < 5e-09 M | pEC50 ([1]; Homo sapiens, HEK293, read-out: HEK293/9xUAS-Luc2P/pBind-GR/PRLR-HA high cells EC50): > 8.00 | HEK293/9xUAS-Luc2P/pBind-GR/PRLR-HA high cells activation relative to Budesonide ([1]; fold activation vs Budesonide): Full | EC50 [2]: < 5e-09 M | AUC(0-inf) [3, 7]: 89.2 ng·h/mL | AUC(0-t) [3, 7]: 84.6 ng·h/mL | Cmax [3, 7]: 39.4 ng/mL | half-life ([3]; mouse, IP, 1 mg/Kg in male C57BL/6 mice, Mean, read-out: Terminal t1/2 (converted)): 1.69 h | Inhibition of TNF-α production ([4]; 5 mpk ip before LPS challenge, plasma at 2 hr time point): significantly inhibited TNF-α production | TNF-a ([4]; plasma 2 hr post LPS challenge, 5MPK ip (−2 h) prior to LPS, individual mice, trifluoroacetic Acid Salt): 56.5 pg/mL and 10.4 pg/mL and 274.8 pg/mL | IL-1b (CD11c+ splenic DCs; 10 nM + LPS): 6.32 ± 0.83 | IL-6 (CD11c+ splenic DCs; 10 nM + LPS): 184.54 ± 21.59 | IL-12p70 (CD11c+ splenic DCs; 10 nM + LPS): 3.84 ± 2.88 | KC-GRO (CD11c+ splenic DCs; 10 nM + LPS): 186.57 ± 15.71 | TNF-a (CD11c+ splenic DCs; 10 nM + LPS): 146.46 ± 18.66 | LPS-induced cytokine responses in CD11c+ DCs (CD11c+ splenic DCs; 10 nM and 100 nM for 24 hours before LPS 10 ng/mL): significantly decreased LPS-induced cytokine responses | IL-1b (CD11c+ splenic DCs; 10 nM, no LPS): 5.22 ± 0.11 | IL-6 (CD11c+ splenic DCs; 10 nM, no LPS): 47.90 ± 4.55 | IL-12p70 (CD11c+ splenic DCs; 10 nM, no LPS): 5.24 ± 1.12 | KC-GRO (CD11c+ splenic DCs; 10 nM, no LPS): 62.85 ± 6.51 | TNF-a (CD11c+ splenic DCs; 10 nM, no LPS): 0 ± 0 | IL-1b (CD11c+ splenic DCs; 100 nM + LPS): 4.80 ± 0.99 | IL-6 (CD11c+ splenic DCs; 100 nM + LPS): 201.10 ± 20.96 | IL-12p70 (CD11c+ splenic DCs; 100 nM + LPS): 8.21 ± 2.79 | KC-GRO (CD11c+ splenic DCs; 100 nM + LPS): 211.96 ± 25.23 | TNF-a (CD11c+ splenic DCs; 100 nM + LPS): 193.29 ± 25.56 | IL-1b (CD11c+ splenic DCs; 100 nM, no LPS): 5.65 ± 0.18 | IL-6 (CD11c+ splenic DCs; 100 nM, no LPS): 63.87 ± 4.78 | IL-12p70 (CD11c+ splenic DCs; 100 nM, no LPS): 6.43 ± 0.67 | KC-GRO (CD11c+ splenic DCs; 100 nM, no LPS): 84.30 ± 6.06 | TNF-a (CD11c+ splenic DCs; 100 nM, no LPS): 0 ± 0 | Pro-inflammatory cytokine production ([5]; Condition 1: entire 7-day conditioning period): significantly reduced pro-inflammatory cytokine production | IL-1b ([5]; Condition 1, 10 nM + LPS): 1.18 ± 0.11 | IL-6 ([5]; Condition 1, 10 nM + LPS): 325.46 ± 2.12 | IL-8 ([5]; Condition 1, 10 nM + LPS): 8670.27 ± 268.97 | IL-12p70 ([5]; Condition 1, 10 nM + LPS): 1.05 ± 0.08 | TNF-a ([5]; Condition 1, 10 nM + LPS): 117.75 ± 6.63 | IL-1b ([5]; Condition 1, 10 nM, no LPS): 0.61 ± 0.007 | IL-6 ([5]; Condition 1, 10 nM, no LPS): 2.23 ± 0.002 | IL-8 ([5]; Condition 1, 10 nM, no LPS): 166.99 ± 2.01 | IL-12p70 ([5]; Condition 1, 10 nM, no LPS): 0.58 ± 0.002 | TNF-a ([5]; Condition 1, 10 nM, no LPS): 1.28 ± 0.087 | IL-1b ([5]; Condition 1, 100 nM + LPS): 1.01 ± 0.07 | IL-6 ([5]; Condition 1, 100 nM + LPS): 159.32 ± 7.31 | IL-8 ([5]; Condition 1, 100 nM + LPS): 8461.59 ± 522.77 | IL-12p70 ([5]; Condition 1, 100 nM + LPS): 0.50 ± 0.19 | TNF-a ([5]; Condition 1, 100 nM + LPS): 123.31 ± 0.11 | IL-1b ([5]; Condition 1, 100 nM, no LPS): 0.641 ± 0.15 | IL-6 ([5]; Condition 1, 100 nM, no LPS): 3.45 ± 0.13 | IL-8 ([5]; Condition 1, 100 nM, no LPS): 136.50 ± 0.87 | IL-12p70 ([5]; Condition 1, 100 nM, no LPS): 0.66 ± 0.03 | TNF-a ([5]; Condition 1, 100 nM, no LPS): 1.46 ± 0.10 | Production of IL12p70, IL6 and TNF-α ([5]; Condition 2: conditioning of mature monocyte-derived DCs): significantly decreased the production of IL12p70, IL6 and TNF-α | IL-1b ([5]; Condition 2, 10 nM + LPS): 30.10 ± 0.93 | IL-6 ([5]; Condition 2, 10 nM + LPS): 5124.75 ± 114.8 | IL-8 ([5]; Condition 2, 10 nM + LPS): 3003.52 ± 212.16 | IL-12p70 ([5]; Condition 2, 10 nM + LPS): 4.81 ± 0.63 | TNF-a ([5]; Condition 2, 10 nM + LPS): 874.18 ± 30.46 | IL-1b ([5]; Condition 2, 10 nM, no LPS): 0.59 ± 0.005 | IL-6 ([5]; Condition 2, 10 nM, no LPS): 12.87 ± 0.312 | IL-8 ([5]; Condition 2, 10 nM, no LPS): 274.75 ± 1.75 | IL-12p70 ([5]; Condition 2, 10 nM, no LPS): 0.60 ± 0.01 | TNF-a ([5]; Condition 2, 10 nM, no LPS): 2.03 ± 0.14 | IL-1b ([5]; Condition 2, 100 nM + LPS): 18.20 ± 1.04 | IL-6 ([5]; Condition 2, 100 nM + LPS): 4680.03 ± 104.90 | IL-8 ([5]; Condition 2, 100 nM + LPS): 2735.36 ± 87.88 | IL-12p70 ([5]; Condition 2, 100 nM + LPS): 2.03 ± 0.16 | TNF-a ([5]; Condition 2, 100 nM + LPS): 696.26 ± 75.10 | IL-1b ([5]; Condition 2, 100 nM, no LPS): 0.59 ± 0.03 | IL-6 ([5]; Condition 2, 100 nM, no LPS): 11.25 ± 0.82 | IL-8 ([5]; Condition 2, 100 nM, no LPS): 317.46 ± 14.83 | IL-12p70 ([5]; Condition 2, 100 nM, no LPS): 0.61 ± 0.02 | TNF-a ([5]; Condition 2, 100 nM, no LPS): 1.37 ± 0.251

CCC[C@@H]1O[C@@H]2C[C@H]3[C@@H]4CCC5=CC(=O)C=C[C@]5(C)[C@H]4[C@@H](O)C[C@]3(C)[C@]2(C(=O)COc2ccc(NC(=O)[C@H](C)NC(=O)[C@@H](NC(=O)CCOCCOCCOCCOCCNC(=O)CCC(=O)N3Cc4ccccc4C#Cc4ccccc43)C(C)C)cc2)O1 [LP7]
solubility ([6]; 20% DMSO in water, aqueous with cosolvent or surfactant or cyclodextrin): 60 µg/mL (≈ 48.9 µM) | solubility ([6]; 30% DMSO in water, aqueous with cosolvent or surfactant or cyclodextrin): 70 µg/mL (≈ 57.1 µM) | solubility ([6]; water): < 100 µg/mL
